According to US6737383B1, “Herbicidal oxadiazolidines” (priority 1999, dated 2004):

Experiments:
pigweed = experiment: Test B pre/postemergence pigweed; type: in vivo, Amaranthus retroflexus
Outline: (§1)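 Herbicidal effect was estimated by eye on a ten-point control scale after plants spent twelve to sixteen days in a greenhouse following soil or foliar treatment. Foliar sprays targeted plants at one to four leaves; all doses were formulated in a non-phytotoxic solvent with surfactant.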

rape = experiment: Test B pre/postemergence rape; type: in vivo, Brassica napus
Outline: as §1

sugar beet = experiment: Test B pre/postemergence sugar beet; type: in vivo, Beta vulgaris
Outline: as §1

bermuda-grass = experiment: Test D bermudagrass; type: in vivo, Cynodon dactylon; settings: Preemergence, 0 to 100 scale
Description: (§2) Seeds, tubers, or plant parts of Alexandergrass (Brachiaria plantaginea), bermuda-grass (Cynodon dactylon), common pursiane (Portulaca oleracea), common ragweed (Ambrosia elatior), common groundsel (Senecio vulgaris), dallisgrass (Paspalum dilatatum), goosegrass (Eleusine indica), guineagrass (Panicum maximum), itchgrass (Rottboellia exaltata), Johnson grass (Sorghum halepense), large crabgrass (Digitaria sanguinalis), pitted morningglory (Ipomoea lacunosa), purple nutsedge (Cyperus rotundus), sandbur (Cenchrus echinatus), sourgrass (Trichachne insularis), Spanishneedles (Bidens bipinnata), surinam grass (Brachiaria decumbens) and tall mallow (Malva sylvestris) were planted into greenhouse pots of flats containing greenhouse planting medium. Plant species were grown in separate pots or individual compartments. Preemergence applications were made within one day of planting the seed or plant part.
(§3) Test chemicals were formulated in a non-phytotoxic solvent mixture which included a surfactant and applied preemergence to the surface of the pot containing seeds in a sandy loam soil. Untreated control pots and treated pots were placed in the greenhouse for growth and visually evaluated for injury 14 to 21 days after herbicide application. Plant response ratings, summarized in Table C, are based on a 0 to 100 scale where 0 is no injury and 100 is complete control. A dash (−) response means no test result.

itchgrass = experiment: Test D itchgrass; type: in vivo, Rottboellia exaltata; settings: Preemergence, 0 to 100 scale
Description: as §2, §3

pitted morningglory = experiment: Test D pitted morningglory; type: in vivo, Ipomoea lacunosa; settings: Preemergence, 0 to 100 scale
Outline: (§4)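 Scoring used a 0–100 visual injury scale, with 0 meaning no effect and 100 complete control, assessed 14–21 days after application alongside untreated pots. Preemergence treatments went onto sandy loam surfaces of separately potted seeds within a day of sowing.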

Spanishneedles = experiment: Test D Spanishneedles; type: in vivo, Bidens bipinnata; settings: Preemergence, 0 to 100 scale
Outline: as §4

winter wheat [1] = experiment: Test E winter wheat; type: in vivo, Triticum aestivum; settings: Postemergence
Outline: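 Compounds formulated in non-phytotoxic solvent mixture with surfactant; for postemergence, sprayed on plants at 1- to 4-leaf stage grown in 60:40 sandy loam/greenhouse potting mix. Kept in greenhouse ~21 to 28 days, then visually rated against untreated controls.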

blackgrass = experiment: Test E blackgrass; type: in vivo, Alopecurus myosuroides; settings: Preemergence
green foxtail = experiment: Test E green foxtail; type: in vivo, Setaria viridis; settings: Preemergence
Italian ryegrass = experiment: Test E Italian ryegrass; type: in vivo, Lolium multiflorum; settings: Preemergence
winter wheat [2] = experiment: Test E winter wheat; type: in vivo, Triticum aestivum; settings: Preemergence
wild oat = experiment: Test E wild oat; type: in vivo, Avena fatua; settings: Preemergence
winter barley = experiment: Test E winter barley; type: in vivo, Hordeum vulgare; settings: Preemergence
[3] = Postemergence, Rate 62 g/ha, scale 0 to 10, 0 is no effect, 10 is complete control
[4] = Postemergence, Rate 250 g/ha, scale 0 to 10, 0 no effect, 10 complete control
[5] = Postemergence, Rate 1000 g/ha, scale 0 to 10 (0 no effect, 10 complete control)
[6] = Preemergence, Rate 31 g/ha, visual rating, scale 0 to 10 (0 no effect, 10 complete control)
[7] = Preemergence, Rate 62 g/ha, scale 0 to 10, 0 is no effect, 10 is complete control
[8] = Preemergence, Rate 125 g/ha, scale 0 to 10 (0 no effect, 10 complete control)
[9] = Preemergence, Rate 250 g/ha, scale of 0 to 10 where 0 is no effect and 10 is complete control
[10] = Rate 31 g/ha, Postemergence, scale 0 to 10
[11] = Rate 125 g/ha, Postemergence, scale 0 to 10, 0 no effect, 10 complete control
[12] = Rate 500 g/ha, Postemergence, 0 to 10 scale (0 no effect, 10 complete control)
[13] = Rate 1000 g/ha, Preemergence, scale 0 to 10 (0 no effect, 10 complete control)
[14] = Preemergence, Rate 500 g/ha, scale 0 (no effect) to 10 (complete control)
[15] = Rate 16 g/ha, 0 no injury, 100 complete control
[16] = Rate 32 g/ha, 0 no injury, 100 complete control
[17] = Rate 64 g/ha, 0 no injury, 100 complete control
[18] = Rate 125 g/ha, 0 no injury, 100 complete control
[19] = Rate 125 g/ha, 0 to 100 scale (0 no effect, 100 complete control)
[20] = Rate 500 g/ha, 0 to 100 scale where 0 is no effect and 100 is complete control
[21] = Rate 1000 g/ha, 0 to 100 scale where 0 is no effect and 100 is complete control

Cc1ccccc1-n1c(=O)on(C(=O)N(c2ccc(F)cc2)C(C)C)c1=O [Compound 4]
Redroot pigweed plant response rating (pigweed; [3]): 0
Redroot pigweed plant response rating (pigweed; [4]): 5
Redroot pigweed plant response rating (pigweed; [5]): 8
Redroot pigweed plant response rating (pigweed; [6]): 0
Plant response rating, Redroot pigweed (pigweed; [7]): 2
Plant response rating, Redroot pigweed (pigweed; [8]): 5
Plant response rating, Redroot pigweed (pigweed; [9]): 8
Redroot pigweed plant response rating (pigweed; [10]): 0
Redroot pigweed plant response rating (pigweed; [11]): 4
Redroot pigweed plant response rating (pigweed; [12]): 7
Plant response rating, Redroot pigweed (pigweed; [13]): 8
Rape plant response rating (rape; [3]): 0
Rape plant response rating (rape; [4]): 0
Rape plant response rating (rape; [5]): 3
Rape plant response rating (rape; [6]): 0
Plant response rating, Rape (rape; [7]): 0
Plant response rating, Rape (rape; [8]): 0
Plant response rating, Rape (rape; [9]): 6
Rape plant response rating (rape; [14]): 0
Rape plant response rating (rape; [10]): 0
Rape plant response rating (rape; [11]): 0
Rape plant response rating (rape; [12]): 2
Plant response rating, Rape (rape; [13]): 3
Sugarbeets plant response rating (sugar beet; [3]): 0
Sugarbeets plant response rating (sugar beet; [4]): 3
Sugarbeets plant response rating (sugar beet; [5]): 4
Sugarbeets plant response rating (sugar beet; [6]): 0
Plant response rating, Sugarbeets (sugar beet; [7]): 0
Plant response rating, Sugarbeets (sugar beet; [8]): 7
Plant response rating, Sugarbeets (sugar beet; [9]): 8
Sugarbeets plant response rating (sugar beet; [14]): 3
Sugarbeets plant response rating (sugar beet; [11]): 2
Plant response rating, Sugarbeets (sugar beet; [13]): 4
Plant response rating, Bermudagrass (bermuda-grass; [15]): 0
Plant response rating, Bermudagrass (bermuda-grass; [16]): 0
Plant response rating, Bermudagrass (bermuda-grass; [17]): 0
Plant response rating, Bermudagrass (bermuda-grass; [18]): 30
Plant response rating, Bermudagrass (bermuda-grass; Rate 250 g/ha): 98
Plant response rating, Bermudagrass (bermuda-grass; Rate 500 g/ha): 98
Plant response rating, Itchgrass (itchgrass; [15]): 0
Plant response rating, Itchgrass (itchgrass; [16]): 0
Plant response rating, Itchgrass (itchgrass; [17]): 75
Plant response rating, Itchgrass (itchgrass; [18]): 0
Plant response rating, Itchgrass (itchgrass; Rate 250 g/ha): 80
Plant response rating, Itchgrass (itchgrass; Rate 500 g/ha): 80
Plant response rating, P. morninglory (pitted morningglory; [15]): 0
Plant response rating, P. morninglory (pitted morningglory; [16]): 0
Plant response rating, P. morninglory (pitted morningglory; [17]): 0
Plant response rating, P. morninglory (pitted morningglory; [18]): 0
Plant response rating, P. morninglory (pitted morningglory; Rate 250 g/ha): 0
Plant response rating, P. morninglory (pitted morningglory; Rate 500 g/ha): 0
Plant response rating, Spanishneedles (Spanishneedles; [15]): 0
Spanishneedles plant response rating (Spanishneedles; [17]): 0
Spanishneedles plant response rating (Spanishneedles; [18]): 40
Plant response rating, Spanishneedles (Spanishneedles; Rate 500 g/ha): 0
Plant response rating, Wheat (winter) (winter wheat [1]; Rate 125 g/ha, 0 to 100 scale): 0
Plant response rating, Wheat (winter) (winter wheat [1]; Rate 250 g/ha, 0 to 100 scale (0 no effect, 100 complete control)): 0
Plant response rating, Wheat (winter) (winter wheat [1]; Rate 1000 g/ha, 0 to 100 scale, 0 is no effect and 100 is complete control): 0
Plant response rating, Wheat (winter) (winter wheat [1]; Rate 500 g/ha, 0 to 100 scale, 0 no effect, 100 complete control): 0
Plant response rating, Blackgrass (blackgrass; [19]): 30
Plant response rating, Blackgrass (blackgrass; Rate 250 g/ha, 0 to 100 scale): 50
Plant response rating, Blackgrass (blackgrass; [20]): 90
Plant response rating, Blackgrass (blackgrass; [21]): 100
Plant response rating, Green foxtail (green foxtail; [19]): 50
Plant response rating, Green foxtail (green foxtail; Rate 250 g/ha, 0 to 100 scale): 55
Plant response rating, Green foxtail (green foxtail; [20]): 100
Plant response rating, Green foxtail (green foxtail; [21]): 100
Plant response rating, I. Ryegrass (Italian ryegrass; [19]): 20
Plant response rating, I. Ryegrass (Italian ryegrass; Rate 250 g/ha, 0 to 100 scale): 20
Plant response rating, I. Ryegrass (Italian ryegrass; [20]): 50
Plant response rating, I. Ryegrass (Italian ryegrass; [21]): 85
Plant response rating, Wheat (winter) (winter wheat [2]; [19]): 0
Plant response rating, Wheat (winter) (winter wheat [2]; Rate 250 g/ha, 0 to 100 scale): 0
Plant response rating, Wheat (winter) (winter wheat [2]; [20]): 0
Plant response rating, Wheat (winter) (winter wheat [2]; [21]): 0
Plant response rating, Wild oat (wild oat; [19]): 10
Plant response rating, Wild oat (wild oat; [20]): 25
Plant response rating, Wild oat (wild oat; [21]): 50
Plant response rating, Barley (winter) (winter barley; [19]): 10
Plant response rating, Barley (winter) (winter barley; Rate 250 g/ha, 0 to 100 scale): 10
Plant response rating, Barley (winter) (winter barley; [20]): 10
Plant response rating, Barley (winter) (winter barley; [21]): 10
